Assay results from publication PMC9268414, “Screening an In-House Isoquinoline Alkaloids Library for New Blockers of Voltage-Gated Na^+ Channels Using Voltage Sensor Fluorescent Probes: Hits and Biases” (Molecules, 2022).
Where “and” joins values, the source holds several entries; their conditions need not be identical. Identical values can stand only once. Like-named read-outs stand apart in the source and are kept apart here.

Columns and labels:
[1] = system: NaV channels endogenously expressed in GH3b6 cells; test: FRET voltage sensor probe (VSP) assay of BTX-induced depolarization in GH3b6 cells; assay type: cell-based, rat; details: GH3b6 cells; for Maximum of Inhibition of BTX-evoked VSP signal / IC50: BTX 1 µM, n = 6; for Maximum of Inhibition of BTX-evoked VSP signal: % printed only; for IC50: read-out: IC50 (µM), inhibition of BTX-evoked VSP signal; for Inhibitory Effects (%) on BTX-induced VSP signal (screening): IA at 10–50 µg/mL co-incubated with 1 µM BTX
hNaV1.3 channel = target: T1, hNaV1.3 channel (Homo sapiens, UniProt Q9NY46); test: Automated patch-clamp, Na+ currents in HEK293-hNaV1.3 cells; assay type: cell-based; details: for Effect on slow-down of inactivation induced by BTX (AUC): 10 µM IA; for Effect on Na+ currents elicited by hNaV1.3: HEK293-hNaV1.3, without BTX
T1 construct: expressed in transfected cells
T1 sequence (Q9NY46 whole entry): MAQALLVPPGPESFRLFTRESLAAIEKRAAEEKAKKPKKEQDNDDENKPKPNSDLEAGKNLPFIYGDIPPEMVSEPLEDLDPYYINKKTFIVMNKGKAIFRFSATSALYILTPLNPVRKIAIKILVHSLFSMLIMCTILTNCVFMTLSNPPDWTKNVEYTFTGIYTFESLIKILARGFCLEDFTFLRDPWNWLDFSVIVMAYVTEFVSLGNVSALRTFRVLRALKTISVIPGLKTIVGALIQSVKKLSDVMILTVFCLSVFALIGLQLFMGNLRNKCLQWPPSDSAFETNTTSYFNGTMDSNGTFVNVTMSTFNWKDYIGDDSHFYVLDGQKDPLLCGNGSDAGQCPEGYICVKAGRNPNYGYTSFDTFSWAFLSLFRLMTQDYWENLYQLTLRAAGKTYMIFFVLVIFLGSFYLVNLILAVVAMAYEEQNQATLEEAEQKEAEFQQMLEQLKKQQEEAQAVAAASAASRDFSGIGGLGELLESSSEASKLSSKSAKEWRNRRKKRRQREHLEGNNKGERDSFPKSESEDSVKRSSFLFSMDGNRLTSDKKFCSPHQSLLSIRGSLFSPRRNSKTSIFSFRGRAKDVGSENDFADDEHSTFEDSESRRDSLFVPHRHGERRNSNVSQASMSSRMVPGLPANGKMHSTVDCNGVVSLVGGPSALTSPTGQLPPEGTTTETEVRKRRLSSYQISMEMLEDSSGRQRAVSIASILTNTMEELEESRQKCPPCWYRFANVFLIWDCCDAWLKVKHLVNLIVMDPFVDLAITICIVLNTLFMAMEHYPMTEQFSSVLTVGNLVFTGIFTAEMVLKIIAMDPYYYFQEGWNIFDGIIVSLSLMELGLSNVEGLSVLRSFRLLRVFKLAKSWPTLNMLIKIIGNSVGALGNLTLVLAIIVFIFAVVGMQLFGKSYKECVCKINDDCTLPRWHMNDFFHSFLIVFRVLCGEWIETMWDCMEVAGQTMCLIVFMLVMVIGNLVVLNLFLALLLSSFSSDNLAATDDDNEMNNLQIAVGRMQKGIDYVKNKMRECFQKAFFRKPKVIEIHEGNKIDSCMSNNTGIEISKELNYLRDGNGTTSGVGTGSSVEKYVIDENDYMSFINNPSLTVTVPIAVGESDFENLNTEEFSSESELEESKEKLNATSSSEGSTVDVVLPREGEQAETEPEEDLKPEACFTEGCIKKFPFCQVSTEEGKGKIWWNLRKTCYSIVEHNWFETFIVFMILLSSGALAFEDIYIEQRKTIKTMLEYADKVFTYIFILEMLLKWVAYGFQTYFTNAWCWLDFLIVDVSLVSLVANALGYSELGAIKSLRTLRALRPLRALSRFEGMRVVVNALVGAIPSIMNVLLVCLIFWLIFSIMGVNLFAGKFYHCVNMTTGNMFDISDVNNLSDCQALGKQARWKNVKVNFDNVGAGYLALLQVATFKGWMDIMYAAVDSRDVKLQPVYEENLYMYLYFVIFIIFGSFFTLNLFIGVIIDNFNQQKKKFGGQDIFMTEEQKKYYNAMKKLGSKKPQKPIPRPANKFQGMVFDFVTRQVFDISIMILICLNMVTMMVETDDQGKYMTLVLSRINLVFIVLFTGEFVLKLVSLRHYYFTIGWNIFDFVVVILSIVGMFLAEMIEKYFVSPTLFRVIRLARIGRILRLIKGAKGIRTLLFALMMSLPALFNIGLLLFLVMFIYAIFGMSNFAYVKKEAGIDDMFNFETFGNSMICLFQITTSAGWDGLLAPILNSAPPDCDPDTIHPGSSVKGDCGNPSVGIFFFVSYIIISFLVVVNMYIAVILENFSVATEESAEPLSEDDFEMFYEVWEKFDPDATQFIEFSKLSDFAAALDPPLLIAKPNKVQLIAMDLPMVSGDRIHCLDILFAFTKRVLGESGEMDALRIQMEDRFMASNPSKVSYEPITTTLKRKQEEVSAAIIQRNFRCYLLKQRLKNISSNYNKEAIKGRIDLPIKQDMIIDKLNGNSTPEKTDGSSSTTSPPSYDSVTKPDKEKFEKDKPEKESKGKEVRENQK
Procedure: (§1) GH3b6 cells are a subclone of the GH3 pituitary cell line and were a generous gift from Dr. Françoise Macari (IGF, Montpellier, France). GH3b6 cells were cultivated from passage 14 until passage 32 at 37 °C/5% CO2 in Dubelcco’s Modified Eagle Medium (DMEM)/F12 (Lonza, Basel, Switzerland), supplemented with 10% FBS (Lonza, Basel, Switzerland), 1 mM L-glutamine, and 1 mM penicillin and streptomycin solution. For the fluorescence assay, the GH3b6 cells were seeded in black-walled, clear-bottom, 96-well, tissue culture-treated, and sterile imaging plates (Corning Hazebrouck, France), at a density of 10,000 cells per well, and incubated for 24 h before starting the experiment. The human Nav1.3 (hNav1.3) channel-expressing cell line (HEK293) used in this work was a generous gift from Massimo Mantegazza (IPMC, Nice, France). HEK293-hNaV1.3 cells were cultivated from passage 20 until passage 35 at 37 °C/5% CO2 in a DMEM high glucose medium (4.5 g/l), supplemented with 10% FBS, pyruvate, L-glutamine, and penicillin and streptomycin solution, each one at 1 mM, completed with 800 µg/mL geneticin G418. For the fluorescence assays, the cells were plated at a density of 50,000 cells per well in black-walled, clear-bottom, 96-well plates and then cultured at 37 °C and 5% CO2 for 24 h before the experiments. HEK293 stably expressing hNaV1.2 and hNaV1.6 were cultivated in the same conditions mentioned above for the HEK293-hNaV1.3 cells. For the automated patch-clamp experiments, cells were passaged from 24 to 48 h prior to the experiment and replated in the appropriate quantity to reach 50–70% confluence. For electrophysiological recordings, cells were detached with trypsin-EDTA and diluted in a culture medium. Then, the cells were centrifuged at 800 rpm for 4 min and resuspended (~300,000 cells/mL) in a patch-clamp extracellular solution.
(§2) Whole-cell recordings were used to investigate the effects of oxostephanine, liriodenine, thalmiculine, bebeerine, and protopine on HEK293 cells stably expressing the hNav1.2, hNav1.3, and hNav1.6 channels. Automated patch-clamp recordings were performed using the SyncroPatch 384PE from Nanion (München, Germany). Chips with a single hole (n = 384, series resistance 3.93 ± 1.19 MΩ) were used for HEK293 cell recordings. Pulse generation and data collection were performed with the PatchControl384 v1.9.7 software (Nanion) and the Biomek interface (Beckman Coulter). Whole-cell recordings were conducted according to the recommended procedures of Nanion. The cells were stored in a cell hotel reservoir at 10 °C, with a shaking speed of 60 RPM. After initiating the experiment, cell catch, sealing, whole-cell formation, liquid application, recording, and data acquisition were all performed sequentially and automatically. The intracellular solution contained (in mM): 10 CsCl, 110 CsF, 10 NaCl, 10 EGTA, and 10 HEPES (pH 7.2, osmolarity 280 mOsm), and the extracellular solution contained (in mM): 60 NMDG, 80 NaCl, 4 KCl, 2 CaCl2, 1 MgCl2, 5 Glucose, and 10 HEPES (pH 7.4 (NaOH), osmolarity 280 ± 3 mOsm). Whole-cell experiments were performed at a holding potential of −100 mV at room temperature (18–22 °C). Currents were sampled at 20 kHz. For pharmacological assays, alkaloid solutions were prepared at 30 µM in the extracellular solution supplemented with 0.3% bovine serum albumin and distributed in 384-well compound plates according to a pre-established plate plan. This distribution within compound plates could not be randomized since it would then excessively complexify the methods of analyses. The working compound solution was diluted 3 times in the patch-clamp recording well by adding from 30 to 60 µL of the external solution to reach the final reported concentration and the test volume of 90 µL. The effects of IA (10 µM) or of BTX (1 µM) were measured at the end of a 10 min application time. Activation curves were built by depolarizations lasting for 2000 ms, from −130 mV to 40 mV, using 5 mV increment steps. […]

hNaV1.6 channel = target: T2, hNaV1.6 channel (Homo sapiens, UniProt Q9UQD0); test: Automated patch-clamp, Na+ currents in HEK293-hNaV1.6 cells; assay type: cell-based; details: for Effect on Na+ currents elicited by hNaV1.6 / Change in V1/2 of activation and inactivation vs control / inhibition at 10 µM: 10 µM; for Effect on Na+ currents elicited by hNaV1.6: HEK293-hNaV1.6
T2 construct: expressed in transfected cells
Procedure: as §1, §2

hNaV1.2 channel = target: T3, hNaV1.2 channel (Homo sapiens, UniProt Q99250); test: Automated patch-clamp, Na+ currents in HEK293-hNaV1.2 cells; assay type: cell-based; details: for Effect on Na+ currents elicited by hNaV1.2: HEK293-hNaV1.2
T3 construct: expressed in transfected cells
T3 sequence (Q99250 whole entry): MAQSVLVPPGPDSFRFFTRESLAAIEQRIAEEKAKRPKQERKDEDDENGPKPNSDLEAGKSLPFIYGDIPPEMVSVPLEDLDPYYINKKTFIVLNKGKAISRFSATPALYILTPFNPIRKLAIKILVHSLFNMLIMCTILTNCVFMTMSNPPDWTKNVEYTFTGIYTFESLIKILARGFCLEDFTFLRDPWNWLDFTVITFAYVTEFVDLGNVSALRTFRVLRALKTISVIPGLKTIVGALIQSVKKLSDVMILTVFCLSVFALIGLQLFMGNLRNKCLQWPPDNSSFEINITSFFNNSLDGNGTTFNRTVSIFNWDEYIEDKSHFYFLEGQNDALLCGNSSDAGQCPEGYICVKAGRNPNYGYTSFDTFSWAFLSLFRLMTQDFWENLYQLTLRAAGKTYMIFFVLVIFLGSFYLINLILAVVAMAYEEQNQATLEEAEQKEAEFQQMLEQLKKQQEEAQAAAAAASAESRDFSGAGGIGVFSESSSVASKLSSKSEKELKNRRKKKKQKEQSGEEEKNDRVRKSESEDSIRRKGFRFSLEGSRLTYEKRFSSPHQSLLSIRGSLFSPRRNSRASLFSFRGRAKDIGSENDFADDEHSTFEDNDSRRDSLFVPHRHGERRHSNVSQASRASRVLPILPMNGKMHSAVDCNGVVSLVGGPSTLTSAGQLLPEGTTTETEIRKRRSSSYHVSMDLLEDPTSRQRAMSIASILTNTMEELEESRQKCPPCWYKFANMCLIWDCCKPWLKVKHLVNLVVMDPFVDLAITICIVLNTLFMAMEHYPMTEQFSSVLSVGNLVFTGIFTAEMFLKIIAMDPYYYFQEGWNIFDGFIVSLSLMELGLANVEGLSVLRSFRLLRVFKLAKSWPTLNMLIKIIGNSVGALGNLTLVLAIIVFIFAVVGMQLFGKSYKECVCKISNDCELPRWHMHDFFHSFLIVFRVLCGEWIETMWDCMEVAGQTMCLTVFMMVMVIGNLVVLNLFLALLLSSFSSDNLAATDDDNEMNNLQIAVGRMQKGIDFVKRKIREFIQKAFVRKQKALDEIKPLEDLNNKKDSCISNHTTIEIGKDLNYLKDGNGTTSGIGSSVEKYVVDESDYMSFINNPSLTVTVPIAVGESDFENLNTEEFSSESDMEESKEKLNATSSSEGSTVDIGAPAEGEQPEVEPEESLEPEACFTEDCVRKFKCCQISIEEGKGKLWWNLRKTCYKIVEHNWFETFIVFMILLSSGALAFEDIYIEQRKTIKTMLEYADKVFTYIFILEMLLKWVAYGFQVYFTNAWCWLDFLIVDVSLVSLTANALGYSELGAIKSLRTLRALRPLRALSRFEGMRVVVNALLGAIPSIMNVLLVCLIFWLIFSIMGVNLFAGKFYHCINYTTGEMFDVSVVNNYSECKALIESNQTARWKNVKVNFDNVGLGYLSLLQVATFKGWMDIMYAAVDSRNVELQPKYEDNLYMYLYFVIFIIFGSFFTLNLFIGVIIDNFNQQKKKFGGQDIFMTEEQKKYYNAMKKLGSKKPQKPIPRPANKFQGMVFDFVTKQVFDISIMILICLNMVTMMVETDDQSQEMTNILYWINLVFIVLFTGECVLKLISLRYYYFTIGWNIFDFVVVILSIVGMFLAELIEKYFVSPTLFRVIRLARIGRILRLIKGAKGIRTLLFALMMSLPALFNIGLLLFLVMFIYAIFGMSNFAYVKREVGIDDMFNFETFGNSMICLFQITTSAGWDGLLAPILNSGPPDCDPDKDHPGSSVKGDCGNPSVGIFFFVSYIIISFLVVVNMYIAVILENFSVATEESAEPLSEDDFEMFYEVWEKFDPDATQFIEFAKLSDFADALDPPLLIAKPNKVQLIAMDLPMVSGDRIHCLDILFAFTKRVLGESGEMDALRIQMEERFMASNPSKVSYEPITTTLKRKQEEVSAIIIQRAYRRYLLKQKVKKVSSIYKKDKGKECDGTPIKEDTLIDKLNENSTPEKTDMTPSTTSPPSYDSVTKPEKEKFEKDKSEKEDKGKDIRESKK
Procedure: as §1, §2

[2] = system: Na+ currents recorded in isolated cardiomyocytes; details: cited from earlier work
human NaV1.3 channel = human NaV1.3 channel (Homo sapiens, UniProt Q9NY46); test: ANG-2 intracellular Na+ fluorescent assay in HEK293-hNaV1.3 cells; assay type: cell-based; details: IA at 10 µM; BTX 3 µM; HEK293-hNaV1.3; read-out: Inhibition of BTX-induced [Na+]i elevation (ANG-2 signal)
Sequence of human NaV1.3 channel (Q9NY46 whole entry): as the sequence (Q9NY46 whole entry) above

[3] = 10 µM IA in the presence of 1 µM BTX
[4] = 10 µM, Vm between −20 mV and 30 mV

| Molecule | Maximum of Inhibition of BTX-evoked VSP signal [1] | IC50 [1] | Inhibitory Effects (%) on BTX-induced VSP signal (screening) [1] | Effect on current densities of hNaV1.3 at −60 mV (hNaV1.3 channel; [3]) | Effect on slow-down of inactivation induced by BTX (AUC) (hNaV1.3 channel; BTX 1 µM, hNaV1.3) | Effect on Na+ currents elicited by hNaV1.3 (hNaV1.3 channel; 10 µM) | Change in V1/2 of activation and inactivation vs control (hNaV1.3 channel; hNaV1.3, 10 µM) | Effect on Na+ currents elicited by hNaV1.6 (hNaV1.6 channel) | Change in V1/2 of activation and inactivation vs control (hNaV1.6 channel; hNaV1.6) | Effect on Na+ currents elicited by hNaV1.2 (hNaV1.2 channel; 10 µM) | Change in V1/2 of activation and inactivation vs control (hNaV1.2 channel; hNaV1.2, 10 µM) | inhibition at 10 µM (human NaV1.3 channel) | other results |
| --- | --- | --- | --- | --- | --- | --- | --- | --- | --- | --- | --- | --- | --- |
| O=C1c2ccccc2-c2c3c(cc4ccnc1c24)OCO3 [IA39, liriodenine] | 83.78 ± 6.59% | 5 ± 0.1 µM | 99.1% | significantly decreased | significantly decreased | no effects | ns | no effects | ns | no effects | ns | 50 ± 10% | IC50 ([1]; listed as liriodenine): 5 to 6 µM; Effect on V1/2 activation of hNaV1.3 (hNaV1.3 channel; [3]): positively shifted; IC50, suppression of Na+ currents in isolated cardiomyocytes [2]: micromolar range |
| COc1cccc2c1C(=O)c1nccc3cc4c(c-2c13)OCO4 [IA14, oxostephanine] | 95.78 ± 6.99% | 6.11 ± 0.09 µM | 84.4% | significantly decreased | significantly decreased | no effects | ns | no effects | ns | no effects | ns | 43 ± 12% | IC50 ([1]; listed as Oxostephanine): 5 to 6 µM; Inhibitory Effects (%) on BTX-induced VSP signal (screening) ([1]; listed as IA24): 80.5% |
| COc1cc2c3cc1Oc1cc(ccc1O)CC1c4c(cc(OC)c(O)c4Oc4ccc(cc4)CC3N(C)CC2)CCN1C (centres unmarked) [IA52, bebeerine] | 41.04 ± 3.44% | 0.74 ± 0.11 µM | 81.9% |  |  |  |  |  | no significant change |  | no significant change | 18 ± 2% | inhibition at 10 µM (hNaV1.3 channel; [4]): 60 to 64%; inhibition at 10 µM (hNaV1.3 channel; 10 µM, at −15 mV): 64 ± 4%; Shift in V1/2 activation vs control (hNaV1.3 channel; hNaV1.3, 10 µM): −3.6 ± 1.0; Activation Slope (±SEM) (hNaV1.3 channel; hNaV1.3, 10 µM bebeerine): 6.4 ± 0.3 ^2; Activation V1/2 (±SEM, mV) (hNaV1.3 channel; hNaV1.3, 10 µM bebeerine): −26.9 ± 0.7 (n = 51) mV; Inactivation Slope (±SEM) (hNaV1.3 channel; hNaV1.3, 10 µM bebeerine): −8.9 ± 0.3 ^5; Inactivation V1/2 (±SEM, mV) (hNaV1.3 channel; hNaV1.3, 10 µM bebeerine): −60.2 ± 0.9 (n = 26) mV; inhibition at 10 µM (hNaV1.6 channel; Vm between −20 mV and 30 mV): 70 to 74%; inhibition at 10 µM (hNaV1.6 channel; at −20 mV): 74 ± 3%; IC50 (hNaV1.6 channel; estimated from inhibition at 10 µM, read-out: IC50 on Na+ currents elicited by hNaV1.6): < 10 µM and > 10 µM; Activation Slope (±SEM) (hNaV1.6 channel; hNaV1.6, 10 µM bebeerine): 7.0 ± 0.3 ^3; Activation V1/2 (±SEM, mV) (hNaV1.6 channel; hNaV1.6, 10 µM bebeerine): −22.1 ± 0.7 (n = 32) mV; Inactivation Slope (±SEM) (hNaV1.6 channel; hNaV1.6, 10 µM bebeerine): −9.0 ± 0.3 ^6; Inactivation V1/2 (±SEM, mV) (hNaV1.6 channel; hNaV1.6, 10 µM bebeerine): −60.2 ± 0.7 (n = 24) mV; inhibition at 10 µM (hNaV1.2 channel; [4]): 42 to 50%; IC50 (hNaV1.2 channel; estimated from inhibition at 10 µM, read-out: IC50 on Na+ currents elicited by hNaV1.2): < 10 µM and > 10 µM; Activation Slope (±SEM) (hNaV1.2 channel; hNaV1.2, 10 µM bebeerine): 5.8 ± 0.3 ^1; Activation V1/2 (±SEM, mV) (hNaV1.2 channel; hNaV1.2, 10 µM bebeerine): −29.1 ± 1.1 (n = 36) mV; Inactivation Slope (±SEM) (hNaV1.2 channel; hNaV1.2, 10 µM bebeerine): −8.5 ± 0.3 ^4; Inactivation V1/2 (±SEM, mV) (hNaV1.2 channel; hNaV1.2, 10 µM bebeerine): −62.3 ± 1.1 (n = 21) mV |
| Cc1c[nH]c(C)c1C(=O)OC(C)C1=CCC23OCCN(C)CC12CC(O)C12OC4(O)CCC1(C)C(CC=C32)C4 (centres unmarked) [BTX, batrachotoxin, reference compound] |  |  |  |  |  |  |  |  |  |  |  |  | EC50 of BTX-induced VSP signal ratio ([1]; BTX 0.01 to 3 µM, Na+ raised to 80 mM): 0.27 ± 0.06 µM; Increase of the AUC of current traces (inactivation rate of hNaV1.3) (hNaV1.3 channel; BTX 1 µM, data not shown): 55 fold |
| COc1ccc2c(c1OC)C(O)C1c3c(cc4c(c3-2)OCO4)CCN1C (centres unmarked) [IA36, sukhodianine] |  |  | 92.2% |  |  |  |  |  |  |  |  |  |  |
| gyrocarpusine [IA42] |  |  | 78.5% |  |  |  |  |  |  |  |  |  |  |
